Converted amounts (≈) assume the structure as drawn. Like-named read-outs stand apart in the source and are kept apart here.
How the values were obtained:
HEK-293 = assay: Cytotoxicity experiment (MTT), HEK-293; assay type: cell-based; settings: Homo sapiens, HEK293, 48 h, HEK-293 normal cells, read-out: Inhibition ratio
Description: (§1) (1) Inoculating cells: Experimental cells in the growth of logarithmic phase were collected and suspended. The cell concentration of the suspension was adjusted so that they could be inoculated into the wells of 96-well micro plate at a density between 10^3-10^4 cells per well (200 μl per well). (2) Culturing cells: The cells were cultured at normal conditions for 3 days and then exposed to 50 uM compounds for test. (3) Coloring reaction: At 24 h, 48 h and 72 h after the cells being exposed to the compounds for test, 200 μl culture medium containing 20 μl MTT solution (5 mg/ml) was added into each well, and the well was further incubated at 37° C. for 2 hours to terminate the incubation. After the incubation, the supernatants were removed from the wells. In the event there were suspended cells in the wells, centrifugation should be performed before removal of supernatant from the wells. After the removal, 150 μl DMSO was added to each well and mixed thoroughly by agitation for 10 mins to fully dissolve crystals. (4) Ascertainment of colorimetry: The absorbance value at 490 nm of each well was determined by Enzyme-linked immunosorbent Monitor. The growth curve of the experimental cells was plotted by taking time as x-coordinate and absorbance value as y-coordinate. In addition, an inhibition ratio could be calculated in accordance with the following formula: Inhibition ratio=(absorbance value of control group-absorbance value of administering group)/absorbance value of control group×100%.

S. agalactiae = assay: In vitro antibacterial activity (MIC), S. agalactiae; assay type: cell-based; settings: Streptococcus agalactiae
Description: (§2) The test strain was inoculated into the liquid medium and cultured at 37° C. for 16-18 h. The culture liquid and MH medium were put into two blank wells of a 96-well plate, respectively. Then, the absorptions thereof were measured by a Microplate reader. The difference between the absorption values of the culture liquid and MH medium is the adsorption of the bacteria. The concentration of the culture liquid can be calculated according to the formula of 1OD=50 million CFU/mL. The culture liquid was diluted with the MH bouillon culture medium to 5000 CFU/mL for further use.
(§3) Compounds 12a, 13 and 14 were dissolved in DMSO to 1 mg/mL, and then filtered with a 0.22 μm filter to obtain the compound solutions. And then they were gradually diluted to a desired concentration (10× final concentration) with the liquid medium, so as to obtain a series of dilutions. The final concentration grade of the dilutions of each tested compound consists of 14 concentrations, which includes: 0.03125 μg/mL, […], 0.125 μg/mL, 0.25 μg/mL, […], 1 μg/mL, 2 μg/mL, 4 μg/mL, 8 μg/mL, 16 μg/mL, 32 μg/mL, 64 μg/mL, 128 μg/mL and 256 μg/mL.
(§4) 10 μL of each of the compound dilutions above was added into a well of a 96-well plate. 90 μL of the culture liquid (5000 CFU/mL) was added into each of the wells, respectively, mixed with the dilutions to render the tested compound concentration to the final concentration. The resulted mixture was incubated at 37° C. for 16-18 h, and then the OD630 thereof was measured. A culture liquid free of the tested compounds is used as a blank control, and three parallel tests with the same concentration of each compound were performed. The minimum inhibitory concentration (MIC) of each compound on the standard strain of Staphylococcus Aureus and other test strains was determined. Specifically, among the culture liquid contained in the wells of the micro-plate, the first three lowest concentrations under which growth of the test strains could be observed were chose for further evaluation of the MIC. A culture liquid free of tested compounds was used as a blank control. Each of the culture liquids was homogenized independently, and then was diluted with a sterile saline. Each of the diluted culture liquids was plated onto a MH bouillon plate and incubated at 37° C. for 20 h in incubator. After the incubation, the number of the colonies on each plate was counted. As compared with the blank control group, the lowest concentration of each of the test compound groups, at which 80% reduction in the colony number of the strains was achieved, was recorded as the MIC.

L-02 = assay: Cytotoxicity experiment (MTT), L-02; assay type: cell-based; settings: Homo sapiens, L02, 48 h, L-02 normal cells, read-out: Inhibition ratio
Description: as §1

E. faecalis = assay: In vitro antibacterial activity (MIC), E. faecalis; assay type: cell-based; settings: Enterococcus faecalis
Description: as §2, §3, §4

S. aureus = assay: In vitro antibacterial activity (MIC), S. aureus; assay type: cell-based, Staphylococcus Aureus; settings: Staphylococcus aureus
Description: Strains: strain ATCC25923 is available from the American Type Culture Collection, and is used as a standard strain of Staphylococcus Aureus;
Liquid medium: MH bouillon culture medium, a product of BD Company, United States of American;
Tested Compounds: compounds 12a, 13 and 14 prepared according to the methods above, and Linezolid purchased from Pfizer.
as §2, §3, §4

S. pneumoniae = assay: In vitro antibacterial activity (MIC), S. pneumoniae; assay type: cell-based; settings: Streptococcus pneumoniae
Description: as §2, §3, §4

[1] = S. agalactiae (5 strains), read-out: MIC
[2] = E. faecalis (7 strains), read-out: MIC
[3] = S. aureus (12 strains), read-out: MIC
[4] = S. pneumoniae (10 strains), read-out: MIC

Compound	melting point [°C]	cytotoxicity at 50 µM (HEK-293) [%]	MIC (S. agalactiae; [1]) [µg/mL]	cytotoxicity at 50 µM (L-02) [%]	MIC (E. faecalis; [2]) [µg/mL]	MIC (S. aureus; [3]) [µg/mL]	MIC (S. pneumoniae; [4]) [µg/mL]	MIC (S. agalactiae) [µg/mL]	MIC (E. faecalis) [µg/mL]	MIC (S. aureus) [µg/mL]	MIC (S. pneumoniae) [µg/mL]
CC(=O)NC[C@H]1CN(c2ccc(-n3nccc3-c3ccc(F)cc3)c(F)c2)C(=O)O1 [Compound 14i, (S)-N-((3-(3-fluoro-4-(5-(4-fluorophenyl)-1H-pyrazol-1-yl)phenyl)-2-oxooxazolidin-5-yl)methyl)acetamide]	111.4 to 112.9	5.5	0.5 to 4 (≈ 1.21 to 9.7 µM)	9	1 to 8 (≈ 2.42 to 19.4 µM)	1 to 8 (≈ 2.42 to 19.4 µM)	0.5 to 8 (≈ 1.21 to 19.4 µM)				
CC(=O)NC[C@H]1CN(c2ccc(-n3ccc(-c4ccccn4)n3)c(F)c2)C(=O)O1 [Compound 12a, (S)-N-((3-(3-fluoro-4-(3-(pyridin-2-yl)-1H-pyrazol-1-yl)phenyl)-2-oxooxazolidin-5-yl)methyl)acetamide]		5.5	2 to 16 (≈ 5.06 to 40.5 µM)	20	2 to 16 (≈ 5.06 to 40.5 µM)	2 to 16 (≈ 5.06 to 40.5 µM)	1 to 16 (≈ 2.53 to 40.5 µM)				
COc1ccc(-c2ccnn2-c2ccc(N3C[C@H](CNC(C)=O)OC3=O)cc2F)cc1OC [Compound 14j, (S)-N-((3-(3-fluoro-4-(5-(3,4-dimethoxyphenyl)-1H-pyrazol-1-yl)phenyl)-2-oxooxazolidin-5-yl)methyl) acetamide]	153.7 to 156.1	7		12				0.25 to 2 (≈ 0.55 to 4.4 µM)	0.5 to 2 (≈ 1.1 to 4.4 µM)	0.25 to 2 (≈ 0.55 to 4.4 µM)	0.25 to 1 (≈ 0.55 to 2.2 µM)
COc1ccc(-c2cnn(-c3ccc(N4C[C@H](CNC(C)=O)OC4=O)cc3F)c2)cc1 [Compound 13c, (S)-N-((3-(3-fluoro-4-(4-(4-methoxyphenyl)-1H-pyrazol-1-yl)phenyl)-2-oxooxazolidin-5-yl)methyl) acetamide]	226.1 to 227.8	32	0.5 to 8 (≈ 1.18 to 18.8 µM)	10.4	0.25 to 8 (≈ 0.589 to 18.8 µM)	1 to 8 (≈ 2.36 to 18.8 µM)	0.5 to 8 (≈ 1.18 to 18.8 µM)				
CC(=O)NC[C@H]1CN(c2ccc(-n3nccc3-c3ccc(Br)cc3)c(F)c2)C(=O)O1 [Compound 14d, (S)-N-((3-(3-fluoro-4-(5-(4-bromophenyl)-1H-pyrazol-1-yl)phenyl)-2-oxooxazolidin-5-yl)methyl)acetamide]	96.8 to 98.8	55		39				2 to 16 (≈ 4.23 to 33.8 µM)	2 to 16 (≈ 4.23 to 33.8 µM)	2 to 16 (≈ 4.23 to 33.8 µM)	1 to 8 (≈ 2.11 to 16.9 µM)
CC(=O)NC[C@H]1CN(c2ccc(-n3nccc3-c3ccc(C)cc3)c(F)c2)C(=O)O1 [Compound 14c, (S)-N-((3-(3-fluoro-4-(5-(p-tolyl)-1H-pyrazol-1-yl)phenyl)-2-oxooxazolidin-5-yl)methyl)acetamide]	89.5 to 91.9	40	2 to 32 (≈ 4.9 to 78.3 µM)	39	2 to 32 (≈ 4.9 to 78.3 µM)	4 to 32 (≈ 9.79 to 78.3 µM)	2 to 16 (≈ 4.9 to 39.2 µM)				
CC(=O)NC[C@H]1CN(c2ccc(-n3nccc3-c3ccccn3)c(F)c2)C(=O)O1 [Compound 14e, (S)-N-((3-(3-fluoro-4-(5-(pyridin-2-yl)-1H-pyrazol-1-yl)phenyl)-2-oxooxazolidin-5-yl)methyl)acetamide]	79.9 to 82.1	47	0.25 to 16 (≈ 0.632 to 40.5 µM)	39	0.25 to 16 (≈ 0.632 to 40.5 µM)	0.5 to 16 (≈ 1.26 to 40.5 µM)	0.125 to 16 (≈ 0.316 to 40.5 µM)				
CC(=O)NC[C@H]1CN(c2ccc(-n3nccc3-c3ccc(Br)cn3)c(F)c2)C(=O)O1 [Compound 14g, (S)-N-((3-(3-fluoro-4-(5-(5-bromopyridin-2-yl)-1H-pyrazol-1-yl)phenyl)-2-oxooxazolidin-5-yl)methyl) acetamide]	92.7 to 95.4	10	0.5 to 8 (≈ 1.05 to 16.9 µM)	5.9	0.25 to 8 (≈ 0.527 to 16.9 µM)	1 to 8 (≈ 2.11 to 16.9 µM)	0.5 to 8 (≈ 1.05 to 16.9 µM)				
CC(=O)NC[C@H]1CN(c2ccc(-n3cc(-c4ccncc4)cn3)c(F)c2)C(=O)O1 [Compound 13a, (S)-N-((3-(3-fluoro-4-(4-(pyridin-4-yl)-1H-pyrazol-1-yl)phenyl)-2-oxooxazolidin-5-yl)methyl)acetamide]		11	0.25 to 16 (≈ 0.632 to 40.5 µM)	4	0.25 to 16 (≈ 0.632 to 40.5 µM)	0.5 to 16 (≈ 1.26 to 40.5 µM)	0.125 to 16 (≈ 0.316 to 40.5 µM)				
CSc1ccc(-c2ccnn2-c2ccc(N3C[C@H](CNC(C)=O)OC3=O)cc2F)cc1 [Compound 14f, (S)-N-((3-(3-fluoro-4-(5-(4-(methylthio)phenyl)-1H-pyrazol-1-yl)phenyl)-2-oxooxazolidin-5-yl)methyl) acetamide]	175.4 to 177.6	40	0.25 to 8 (≈ 0.568 to 18.2 µM)	29	0.5 to 8 (≈ 1.14 to 18.2 µM)	1 to 8 (≈ 2.27 to 18.2 µM)	0.5 to 8 (≈ 1.14 to 18.2 µM)				
CC(=O)NC[C@H]1CN(c2ccc(-n3nccc3-c3cccnc3)c(F)c2)C(=O)O1 [Compound 14a, (S)-N-((3-(3-fluoro-4-(5-(pyridin-3-yl)-1H-pyrazol-1-yl)phenyl)-2-oxooxazolidin-5-yl)methyl)acetamide]		14	2 to 16 (≈ 5.06 to 40.5 µM)	7.51	2 to 16 (≈ 5.06 to 40.5 µM)	2 to 16 (≈ 5.06 to 40.5 µM)	1 to 16 (≈ 2.53 to 40.5 µM)				
CC(=O)NC[C@H]1CN(c2ccc(-n3cc(-c4ccc(C)cc4)cn3)c(F)c2)C(=O)O1 [Compound 13b, (S)-N-((3-(3-fluoro-4-(4-(p-tolyl)-1H-pyrazol-1-yl)phenyl)-2-oxooxazolidin-5-yl)methyl)acetamide]	221.5 to 222.8	12	0.25 to 8 (≈ 0.612 to 19.6 µM)	5.58	0.5 to 8 (≈ 1.22 to 19.6 µM)	1 to 8 (≈ 2.45 to 19.6 µM)	0.5 to 8 (≈ 1.22 to 19.6 µM)				

Source: patent US8946436B2, “Oxazolidinone compounds and their uses in preparation of antibiotics” (Sichuan Gooddoctor Pharmaceutical Group Co., Ltd., priority 2011, dated 2015)
